Source: patent US10745414B2, “Crystal salt form of 2,2-dimethyl-6-((4-((3,4,5-trimethoxyphenyl)amino)-1,3,5-triazine-2-yl)amino)-2H-pyrido[3,2-b][1,4]oxazine-3(4H)-one for human use” (LIMITED “MOLECULAR TECHNOLOGIES”, priority 2016, dated 2020)

How the values were obtained:
[1] = pharmacokinetics in blood plasma after oral administration in Wistar rats; conditions: rat, in vivo
Protocol: At the first stage, pharmacokinetics of the Compound 1 free base was studied after oral administration in Wistar rats at dosage of 30 mg/kg.
Pharmacokinetics of several Compound 1 salt forms was studied after oral administration in Wistar rats at a dose of 37 mg/kg (30 mg/kg equivalent to a free base).

[2] = distribution across organs and tissues in rats; format: in vivo
Protocol: When the 4-methylbenzenesulfonic acid and Compound 1 salt hydrate is administered intragastrically at dosages 30 to 200 mg/kg, the Compound 1 concentration in rat blood plasma increases in proportion to the dose. High concentrations of the Compound 1 was found almost in all the tissues studied and reached maximum at 2 to 4 hours after 4-methylbenzenesulfonic acid and Compound 1 salt hydrate administration.

[3] = pharmacokinetics in rabbits at single administration; format: in vivo; conditions: 50 mg/kg
mature human osteoclasts = assay: osteoclast-mediated resorption of mineralized matrix; format: cell-based; conditions: 1.1 μM and 10 μM, 48 hours
Protocol: The study was carried out following the method below: CD15+ monocytes (osteoclast precursor cells) were cultivated for 3 days in a proliferation medium (Igla α-modified minimum essential medium/fetal calf serum (aMEM/FCS), 10% with 25 ng/ml of macrophage colony-stimulating factor (M-CSF)). During this stage M-CSF promoted proliferation and expression of a receptor activator of nuclear factor KB (RANK, cappa-B, type I membrane protein). The proliferation medium was removed and cells were differentiated in a differentiation medium (aMEM/FCS-10% with 100 ng/ml of RANKL and 25 ng/ml of M-CSF). When mature osteoclasts were detected in the culture (day 4 of the study), the cells were collected and re-inoculated into a 96-well plate coated with a synthetic mineralized matrix. Cultivation continued for 48 hours (at presence of the studied compounds) to evaluate osteoclast resorption. Then number of mature osteoclasts and the resorption degree were evaluated. An effect of 4-methylbenzenesulfonic acid and Compound 1 salt concentration on concentration and resorption degree of mature osteoclasts was evaluated in comparison with control samples ([…] control, 0.3% DMSO solvent) and reference inhibitors, i.e., saracatinib and bosutinib (see FIG. 18).

[4] = test system: Sprague-Dawley rat models of osteoarthritis induced by intra-articular introduction of sodium iodoacetate; assay: mechanical allodynia test with von Frey filaments in osteoarthritis induced by sodium iodoacetate; format: in vivo
Protocol: The intra-articular introduction of aerobic glycolysis inhibitor (sodium iodoacetate) results in death of chondrocytes and acute inflammatory reaction in a synovial cavity. In absence of treatment, at day 10 from the pathology induction an onset of chronic pain is observed due to cartilage destruction and development of chronic inflammation in particular cases [J Musculoskel Neuron Interact 2001; 1(4):363-376]. Extent of osteoarthritis development in rats was evaluated by comparison of extremity pain sensitivity threshold after the introduction of sodium iodoacetate versus background measurements taken before the pathology induction. The threshold of the pain sensitivity was evaluated by mechanical allodynia test using von Frey filaments (see Table 8).
For the purposes of the study, rat males weighing 150 to 200 g were selected. All the animals underwent acclimatization for 14 days. The animals were housed in a polycarbonate cages of 3H type manufactured by Charles River laboratories Inc according to COST R 53434-2009. 12-hours lighting regimen was maintained. The animals had access to food and water ad libitum. The pathology was induced by introduction of 50 μl solution containing 2 mg of sodium iodoacetate into a synovial cavity of the animal knee joints. Tactile allodynia induced by a mechanical irritation was evaluated using von Frey filaments weighing 0.06 to 23.96 g. The test was repeated five times for each filament at intervals of 1 to 2 s. The sensitivity threshold was considered as a minimum reaction threshold provoking paw withdrawal in one of five repeats.

[5] = pharmacokinetics in blood plasma after oral administration in Wistar rats; conditions: rat, in vivo, 21 mg/kg

- time of reaching maximum concentration in blood [1]: 1.1 to 1.3 h
- daily average concentration in bone and cartilage tissues versus daily average concentration in blood plasma ([2]; intragastric): more than three times
- elimination half-time [3]: more than 7 hours
- Cmax [5]: 416 ng/mL
SMILES: COc1cc(Nc2ncnc(Nc3ccc4c(n3)NC(=O)C(C)(C)O4)n2)cc(OC)c1OC.Cc1ccc(S(=O)(=O)O)cc1.O [monohydrate of 4-methylbenzenesulfonic acid and 2,2-dimethyl-6-((4-((3,4,5-trimethoxyphenyl)amino)-1,3,5-triazine-2-yl)amino)-2H-pyrido[3,2-b][1,4]oxazine-3(4H)-one base]
- tissue with lowest concentration [2]: lowest concentration of the Compound 1 was registered in muscles
- effect on osteoclast-mediated resorption of the mineralized matrix (mature human osteoclasts): profound statistically significant inhibitory effect
- Reaction threshold value, % of control ([4]; 100 mg/kg intragastric, days 0-28 (daily), day 14 from pathology induction): 106 % of control
- Reaction threshold value, % of control ([4]; 100 mg/kg intragastric, days 0-28 (daily), day 21): 80 % of control
- Reaction threshold value, % of control ([4]; 100 mg/kg intragastric, days 0-28 (daily), day 28): 106 % of control
- Reaction threshold value, % of control ([4]; 100 mg/kg intragastric, days 7-28 (daily), day 14): 70 % of control
- Reaction threshold value, % of control ([4]; 100 mg/kg intragastric, days 7-28 (daily), day 21): 75 % of control
- Reaction threshold value, % of control ([4]; 100 mg/kg intragastric, days 7-28 (daily), day 28): 73 % of control
- Reaction threshold value, % of control ([4]; 500 mg/kg intragastric, days 0-28 (daily), day 14): 114 % of control
- Reaction threshold value, % of control ([4]; 500 mg/kg intragastric, days 0-28 (daily), day 21): 106 % of control
- Reaction threshold value, % of control ([4]; 500 mg/kg intragastric, days 0-28 (daily), day 28): 107 % of control
- Reaction threshold value, % of control ([4]; 500 mg/kg intragastric, days 7-28 (daily), day 14): 76 % of control
- Reaction threshold value, % of control ([4]; 500 mg/kg intragastric, days 7-28 (daily), day 21): 91 % of control
- Reaction threshold value, % of control ([4]; 500 mg/kg intragastric, days 7-28 (daily), day 28): 118 % of control
- mechanical allodynia onset ([4]; 100 and 500 mg/kg from day of pathology induction, 500 mg/kg from the seventh day): Total arrest of mechanical allodynia onset
